These results are taken from ChEMBL document CHEMBL5321281, “Synthesis and Biological Evaluation of Heterocyclic Ring-Fused 20(S)-Protopanaxadiol Derivatives as Potent Antiosteoporosis Agents” (J Med Chem, 2023).

Series [1] has as its system Mus musculus. Put plainly: Protective effect in ovariectomy induced osteoporosis C57BL/6 mouse model assessed as inhibition of OVX-induced osteoclast activity by analysing osteoclast area in proximal femur at 3 mg/kg, ip and measured after 6 weeks by H and E staining based microscopic analysis. The series is classed as functional, organism-based.
Series [2] can be described thus: AUCt in ICR mouse at 1 mg/kg, iv and measured upto 24 hrs by LC-MS/MS analysis. The series is classed as ADME, organism-based. More on the design: dose 1 mg/kg, time < 24 hrs, route iv. To be noted: in vivo.
A short description of series [3]: Clearance in ICR mouse at 1 mg/kg, iv and measured upto 24 hrs by LC-MS/MS analysis. The series is classed as ADME, organism-based. Conditions: in vivo.
For series [4], the system named is BMMC. Briefly: Anti-osteoclastogenic activity in C57/BL6 mouse BMMC cells assessed as reduction in RANKL-induced MMP-9 mRNA expression level at 0.1 uM incubated for 1 to 5 days in presence of M-CSF by qRT-PCR analysis. The series is classed as functional, cell-based. Conditions: time 1-5 day, TDE = time-dependent effect.
A short description of series [5]: Apparent volume of distribution in ICR mouse at 1 mg/kg, iv and measured upto 24 hrs by LC-MS/MS analysis. Conditions: in vivo, read-out: Vz. The series is classed as ADME, organism-based.
Series [6] deals with BMMC. Briefly: Anti-osteoclastogenic activity in C57/BL6 mouse BMMC cells assessed as reduction in RANKL-induced CTSK mRNA expression level at 0.1 uM incubated for 1 to 5 days in presence of M-CSF by qRT-PCR analysis. The series is classed as functional, cell-based. Conditions: time 1-5 day, TDE = time-dependent effect. (Real-time PCR tracks product formation cycle by cycle.)

Series [7] in a line: Microsomal stability in mouse liver microsomes assessed as intrinsic clearance at 1 uM and measured upto 60 mins by LC-MS/ MS analysis. The series is classed as ADME, Microsome. To be noted: read-out: CLH. (Microsomes from liver hold many membrane-bound enzymes, among them those of drug oxidation.)
For series [8], the system named is Mus musculus. Briefly: Protective effect in ovariectomy induced osteoporosis C57BL/6 mouse model assessed as inhibition of OVX-induced osteoblast activity by analysing osteoblast number in proximal femur at 3 mg/kg, ip and measured after 6 weeks by TRAP staining based microscopic analysis. The class given is functional, organism-based.
For series [9], the system named is BMMC. Briefly: Anti-osteoclastogenic activity in C57/BL6 mouse BMMC cells assessed as reduction in RANKL-induced ATPase v0d2 mRNA expression level at 0.1 uM incubated for 1 to 5 days in presence of M-CSF by qRT-PCR analysis. The class given is functional, cell-based. Conditions: time 1-5 day, TDE = time-dependent effect.
Series [10] has as its system BMMC. Put plainly: Anti-osteoclastogenic activity in C57/BL6 mouse BMMC cells assessed as inhibition of RANKL-induced osteoclast differentiation incubated for 5 to 7 days in presence of M-CSF by TRAP staining based microscopic analysis relative to control. The series is classed as functional, cell-based.
A short description of series [11]: AUCt in ICR mouse at 10 mg/kg, po and measured upto 24 hrs by LC-MS/MS analysis. The class given is ADME, organism-based. More on the design: dose 10 mg/kg, time < 24 hrs, route po. To be noted: in vivo.
Series [12] can be described thus: Oral bioavailability in ICR mouse at 10 mg/kg and measured upto 24 hrs by LC-MS/MS analysis. The class given is ADME, organism-based. To be noted: in vivo.

Calls of active or inactive are those of the source. No cut-off for these calls is given here.

In the case of `C=C(CCC=C(C)C)[C@H]1CC[C@]2(C)[C@@H]1[C@H](O)C[C@@H]1[C@@]3(C)Cc4cnc(C)nc4C(C)(C)[C@@H]3CC[C@]12C`, in the series with Mus musculus [1], the inhibition result was “Active”. The AUC(0-t) (usually the area under the concentration-time curve up to a stated or last time point) at 24 h amounted to 1170 ng·h/mL in series [2] and 1210 ng·h/mL in series [11]. For the same compound, in series [3], the clearance (as a rule, the rate of elimination divided by the concentration) is 14.2 mL/min/kg. Moreover, the Activity entry in the series on BMMC [4], in the series on BMMC [6] and in the series with BMMC [9] was “Tde” throughout. Also, in series [5], the Vd is 0.413 L/kg. Further, the microsomal CLint at 1 µM in series [7] turned out to be 37.4 µL/min/mg. The inhibition result in the series with Mus musculus [8] was “inactive”. For the same compound, in the series with BMMC [10], the IC50 (commonly the concentration that gives 50% inhibition) worked out at 0.0103 µM. Also, in [12], the bioavailability (in general, the share of a dose that reaches the circulation, judged against a reference dose that is usually intravenous) was found to be 10.5%.
